Patent US6638938B1, “Method for preventing tissue injury from hypoxia” (Cell Therapeutics, Inc., priority 1993, dated 2003)

What was measured:
[1] = system: mRNA for IL-1β, IL-6, TNFα and IFN-γ; assay: cytokine mRNA by PCR in murine hemorrhage and resuscitation model; assay type: in vivo, Balb/C mice
Experimental: This example illustrates a study of Lisofylline in a murine hemorrhage and resuscitation model. Male Balb/C mice, 8-12 weeks of age, were obtained from Harlan-Sprague Dawley (Indianapolis, Ind.). The animals were kept on a 12 hour light/dark cycle with free access to food and water. With this model, 30% of the calculated blood volume (approximately 0.55 ml for a 20 gram mouse) was withdrawn from a methoxyflurane anesthetized mouse by cardiac puncture over a 60-second period. The blood was collected into a heparinized syringe (5 units heparin), kept at 37° C. for one hour, then reinfused into the mouse through a retroorbital plexus injection. Using this method, one is able to resuscitate all hemorrhaged mice without complication. The total period of methoxyflurane anesthesia is less than 2 minutes in all cases. The mortality rate with this hemorrhage protocol is approximately 12%, with all deaths occurring over the 24 hours post hemorrhage, and most deaths occurring within the one hour post hemorrhage.
Mice were treated with 100 mg/kg Lisofylline in 0.2 ml PBS and given initially i.v., by retroorbital injection, then i.p. every 8 hours for a total of 9 doses. In hemorrhaged mice, the Lisofylline in PBS was added to the shed blood, and then given retroorbitally with the blood during the resuscitation phase. In hemorrhaged Balb/C mice (n=3), sacrificed by exsanguination 5 minutes after receiving Lisofylline with the blood used for resuscitation, serum levels of Lisofylline were 44±6 μg/ml.
Intraparenchymal pulmonary mononuclear cells were isolated by collagenase digestion and Percoll® gradient purification using techniques previously described. Briefly, after the mouse was killed by cervical dislocation or exsanguination, the chest was opened and the lung vascular bed was flushed by injecting 3-5 ml of chilled (4° C.) PBS into the right ventricle. The lungs were then excised, avoiding the paratracheal lymph nodes, and washed twice in RPMI 1640. The lungs were minced finely, and the tissue pieces placed in RPMI 1640 with 5% FCS, penicillin/streptomycin, 10 mM HEPES, 50 μM 2-ME, 20 mM L-glutamine, containing 20 U/ml collagenase and 1 μg/ml DNase. Following incubation for 60 minutes at 37° C., any remaining intact tissue was disrupted by passage through a 21 gauge needle. Tissue fragments and the majority of dead cells were removed by rapid filtration through a glass wool column, and cells collected by centrifugation. The cell pellet was suspended in 4 ml of 80% Percoll® (Pharmacia, Uppsala, Sweden) and 4 ml of 40% Percoll® was then layered on. After centrifugation at 600 g for 20 minutes at 15° C., the cells at the interface were collected, washed in RPMI 1640, and counted. Viability, as determined by trypan blue exclusion, was consistently greater than 98%.
Peripheral blood mononuclear cells were isolated from heparinized blood which had been diluted 2:1 with PBS, pH 7.3, and layered onto a gradient containing 4 ml Lympholyte M (Accurate Chemicals, San Diego, Calif.). After centrifugation at 600 g for 20 minutes at 15° C., the cells at the interface were collected, washed in RPMI 1640, and counted. Viability, as determined by trypan blue exclusion, was consistently greater than 98%. Plasma was collected following centrifugation of bloodto whichhad beenadded 10^−3 M EDTA.
mRNA was isolated using oligo dT cellulose minicolumns (Invitrogen San Diego, Calif.). cDNA was synthesized from the mRNA of 100,000 cells for all cell populations except alveolar macrophages (where 20,000 cells were used) using Moloney murine leukemia virus reverse transcriptase and random hexamer oligonucleotides according to the procedure of Kawasaki (PCR Protocols: A Guide to Methods and Applications, Innis et al., eds, pp. 21-27, Academic Press, New York, 1991). […]

human neutrophils = assay: neutrophil chemotaxis in Boyden chambers to zymosan activated serum; assay type: cell-based
From the text: Human recombinant interleukin-1α (IL-1) was obtained from Hoffmann-LaRoche, Inc. (Nutley, N.J.), frozen inaliquots and thawed daily for use. Ketamine hydrochloride was obtained from Parke-Davis (Morris Plains, N.J.), xylazine from Haver (New York, N.J.), ^125I labeled bovine serum albumin (BSA) from ICN Radiochemicals (Irvine, Calif.), and heparin sodium from Elkins-Sinn, Inc. (Cherry Hill, N.J.). All other reagents were purchased from Sigma Chemical Co. (St. Louis, Mo.). Neutrophils were purified from human blood by well described methods. Venous blood was anticoagulated with heparin and the cellular elements were separated from platelet-rich plasma by centrifugation. Cell pellets were resuspended in platelet-poor plasma and diluted 1:4 with 6% dextran (Pharmacia Fine Chemicals, Piscataway, N.J.) in saline. Red cells were separated from leukocytes by sedimentation. Leukocyte-rich supernatants were then aspirated, underlain with Ficoll-Hypaque (Pharmacia Fine Chemicals), and centrifuged at 275×g to separate neutrophils and monocytes. […]
Each sample was run in triplicate. Unstimulated locomotion was measured using control neutrophils in Hank's Balanced Salt Solution (HBSS) in the top chamber and HBSS in the bottom chamber. Stimulated locomotion was measured using twice-washed neutrophils in HBSS in the top chamber with and without Lisofylline and zymosan-activated serum (ZAS) in the bottom chamber. […] Indices of unstimulated or stimulated locomotion were expressed as the number of neutrophils migrating through the filter in 5 random, high-power objective fields (HPF).
Neutrophil chemotactic activity was determined by Boyden chamber assay and quantitated as the number of migrating PMN/5HPF using zymosan-activated serum (ZAS) as the chemoattractant (Repine et al., J. Reticuloendo. Soc. 24:217, 1978). Neutrophil adherence was assessed by quantitating the percentage of neutrophils adhering to nylon fibers following addition of phorbol myristate acetate (PMA 10-^6M, Sigma) (Rasp et al., J. Reticuloendo. Soc. 25:101, 1979). […]

`C[C@@H](O)CCCCn1c(=O)c2c(ncn2C)n(C)c1=O` [Lisofylline, 1-R-(5-hydroxyhexyl)-3,7-dimethylxanthine] was tested. Which “murine lung cytokine levels (FIG. 5)” value ([1]; determined by PCR, following hemorrhage and resuscitation) did it give?
The value was “significantly decreased”.

And the “lung cytokine concentrations (FIG. 7)” value ([1]; following hemorrhage shock in mice, model of ARDS)?
The value was “significantly decreased”.

And the “TNFα mRNA levels in PBMC” value ([1]; hemorrhage/resuscitated mice treated, versus untreated, 3 days)?
Its value is “significantly decreased”.

What about the “amounts of mRNA for IL-1β and TNF among cells isolated from BAL samples” value ([1]; hemorrhaged/resuscitated mice treated, versus normal untreated or normal treated mice) of the same compound?
The value was “not different”.

And the “levels of mRNA for IL-1β, IL-6, TNFα and IFN-γ among intraparenchymal pulmonary mononuclear cells” value ([1]; hemorrhaged/resuscitated mice treated, versus untreated, 3 days)?
The value was “significantly decreased”.

And the “mRNA levels in PBMC for IL-1β, IL-6, TNFα and IFN-γ” value ([1]; treatment after hemorrhage)?
Its value is “did not affect”.

And the “Neutrophil Chemotaxis in Boyden Chambers in vitro” value (human neutrophils; Neutrophils + ZAS + Lisofylline 1 μM)?
Its value is 15.0 (2)δ PMN/5HPF.

What about the “Neutrophil Chemotaxis in Boyden Chambers in vitro” value (human neutrophils; Neutrophils + ZAS + Lisofylline 50 μM) of the same compound?
Its value is 11.1 (2)δ PMN/5HPF.

What about the “stimulated human neutrophil chemotaxis” value (human neutrophils; ZAS as chemoattractant, in vitro) of the same compound?
The value was “reduced”.
